Test results taken from ChEMBL document CHEMBL4033623, “Synthesis of xanthone derivatives and studies on the inhibition against cancer cells growth and synergistic combinations of them” (Eur J Med Chem, 2017).
pIC50: −log10 of the molar value. Calls of active or inactive are those of the source. The calls are words filed in the database; no cut-off is given here.

Columns and labels:
MDA-MB-231 [1] = experiment: Antiproliferative activity against human MDA-MB-231 cells after 48 hrs by CCK8 assay; type: functional, cell-based; conditions: MDA-MB-231, 48 h
MCF7 [2] = experiment: Antiproliferative activity against human MCF7 cells after 48 hrs by CCK8 assay; type: functional, cell-based; conditions: MCF7, 48 h
HepG2 [3] = experiment: Antiproliferative activity against human HepG2 cells after 48 hrs by CCK8 assay; type: functional, cell-based; conditions: HepG2, 48 h
K562 [4] = experiment: Antiproliferative activity against human K562 cells after 48 hrs by CCK8 assay; type: functional, cell-based; conditions: K562, 48 h
COLO 320 [5] = experiment: Antiproliferative activity against human COLO320 cells after 48 hrs by CCK8 assay; type: functional, cell-based; conditions: COLO 320, 48 h
MDA-MB-231 [6] = experiment: Synergistic antiproliferative activity against human MDA-MB-231 cells at compound to DMXAA mol ratio of 1:1 after 48 hrs by CCK8 assay; type: functional, cell-based; conditions: MDA-MB-231, 48 h
MCF7 [7] = experiment: Synergistic antiproliferative activity against human MCF7 cells at compound to DMXAA mol ratio of 1:1 after 48 hrs by CCK8 assay; type: functional, cell-based; conditions: MCF7, 48 h
HepG2 [8] = experiment: Synergistic antiproliferative activity against human HepG2 cells at compound to DMXAA mol ratio of 1:1 after 48 hrs by CCK8 assay; type: functional, cell-based; conditions: HepG2, 48 h
K562 [9] = experiment: Synergistic antiproliferative activity against human K562 cells at compound to DMXAA mol ratio of 1:1 after 48 hrs by CCK8 assay; type: functional, cell-based; conditions: K562, 48 h
COLO 320 [10] = experiment: Synergistic antiproliferative activity against human COLO320 cells at compound to DMXAA mol ratio of 1:1 after 48 hrs by CCK8 assay; type: functional, cell-based; conditions: COLO 320, 48 h
MDA-MB-231 [11] = experiment: Induction of apoptosis in human MDA-MB-231 cells assessed as viable cells at 24 uM after 48 hrs by Annexin-V/FITC/PI staining based flow cytometry (reference value: 88.78 %); type: functional; conditions: MDA-MB-231, 48 h, read-out: Activity
MDA-MB-231 [12] = experiment: Induction of apoptosis in human MDA-MB-231 cells assessed as early apoptotic cells at 24 uM after 48 hrs by Annexin-V/FITC/PI staining based flow cytometry (reference value: 0.03 %); type: functional
MDA-MB-231 [13] = experiment: Induction of apoptosis in human MDA-MB-231 cells assessed as late apoptotic cells at 24 uM after 48 hrs by Annexin-V/FITC/PI staining based flow cytometry (reference value: 1.18 %); type: functional
MDA-MB-231 [14] = experiment: Induction of apoptosis in human MDA-MB-231 cells assessed as necrotic cells at 24 uM after 48 hrs by Annexin-V/FITC/PI staining based flow cytometry (reference value: 10.01 %); type: functional
MDA-MB-231 [15] = experiment: Induction of apoptosis in human MDA-MB-231 cells assessed as viable cells at 48 uM after 48 hrs by Annexin-V/FITC/PI staining based flow cytometry (reference value: 88.78 %); type: functional; conditions: MDA-MB-231, 48 h, read-out: Activity
MDA-MB-231 [16] = experiment: Induction of apoptosis in human MDA-MB-231 cells assessed as early apoptotic cells at 48 uM after 48 hrs by Annexin-V/FITC/PI staining based flow cytometry (reference value: 0.03 %); type: functional
MDA-MB-231 [17] = experiment: Induction of apoptosis in human MDA-MB-231 cells assessed as late apoptotic cells at 48 uM after 48 hrs by Annexin-V/FITC/PI staining based flow cytometry (reference value: 1.18 %); type: functional
MDA-MB-231 [18] = experiment: Induction of apoptosis in human MDA-MB-231 cells assessed as necrotic cells at 48 uM after 48 hrs by Annexin-V/FITC/PI staining based flow cytometry (reference value: 10.01 %); type: functional
MDA-MB-231 [19] = experiment: Induction of apoptosis in human MDA-MB-231 cells assessed as viable cells at 96 uM after 48 hrs by Annexin-V/FITC/PI staining based flow cytometry (reference value: 88.78 %); type: functional; conditions: MDA-MB-231, 48 h, read-out: Activity
MDA-MB-231 [20] = experiment: Induction of apoptosis in human MDA-MB-231 cells assessed as early apoptotic cells at 96 uM after 48 hrs by Annexin-V/FITC/PI staining based flow cytometry (reference value: 0.03 %); type: functional
MDA-MB-231 [21] = experiment: Induction of apoptosis in human MDA-MB-231 cells assessed as late apoptotic cells at 96 uM after 48 hrs by Annexin-V/FITC/PI staining based flow cytometry (reference value: 1.18 %); type: functional
MDA-MB-231 [22] = experiment: Induction of apoptosis in human MDA-MB-231 cells assessed as necrotic cells at 96 uM after 48 hrs by Annexin-V/FITC/PI staining based flow cytometry (reference value: 10.01 %); type: functional
MDA-MB-231 [23] = experiment: Induction of apoptosis in human MDA-MB-231 cells assessed as increase in cleaved PARP level at 24 to 96 uM after 48 hrs by Western blot analysis; type: functional, cell-based
MDA-MB-231 [24] = experiment: Induction of apoptosis in human MDA-MB-231 cells assessed as increase in cleaved caspase-3 expression at 24 to 96 uM after 48 hrs by Western blot analysis; type: functional, cell-based
MDA-MB-231 [25] = experiment: Decrease in caspase-9 level in human MDA-MB-231 cells at 24 to 96 uM after 48 hrs by Western blot analysis; type: functional, cell-based
MDA-MB-231 [26] = experiment: Decrease in caspase-3 level in human MDA-MB-231 cells at 24 to 96 uM after 48 hrs by Western blot analysis; type: functional, cell-based
MDA-MB-231 [27] = experiment: Increase in p53 level in human MDA-MB-231 cells at 24 to 96 uM after 48 hrs by Western blot analysis; type: functional, cell-based
MDA-MB-231 [28] = experiment: Decrease in MDM2 level in human MDA-MB-231 cells at 24 to 96 uM after 48 hrs by Western blot analysis; type: functional, cell-based
MDA-MB-231 [29] = experiment: Cell cycle arrest in human MDA-MB-231 cells assessed as increase in accumulation at G2/M phase at 48 uM after 48 hrs by propidium iodide staining based flow cytometric method relative to control; type: functional
MDA-MB-231 [30] = experiment: Induction of apoptosis in human MDA-MB-231 cells after 48 hrs by Annexin-V/FITC/PI staining based flow cytometry; type: functional, cell-based

| pIC50 (MDA-MB-231 [1]) | pIC50 (MCF7 [2]) | pIC50 (HepG2 [3]) | pIC50 (K562 [4]) | pIC50 (COLO 320 [5]) | Structure (SMILES) | further results |
| --- | --- | --- | --- | --- | --- | --- |
| 4.94 | 4.67 | 4.51 | 4.71 | 4.94 | COc1cc(OC)c2c(=O)c3cc(Cl)ccc3oc2c1 | – |
| 4.17 | 4.27 | < 3.70 | 4.21 | < 3.70 | O=c1c2cc(Cl)ccc2oc2cccc(O)c12 | – |
| 4.63 | 4.36 | 4.63 | 4.88 | 4.64 | O=c1c2cc(O)c(O)cc2oc2cc(O)cc(O)c12 | – |
| 4.27 | < 3.70 | < 3.70 | 4.20 | 4.08 | O=c1c2cc(O)ccc2oc2c(O)c(O)ccc12 | – |
| 4.02 | 4.38 | 4.63 | 4.35 | 4.26 | O=c1c2ccc(O)cc2oc2c(O)cccc12 | – |
| 4.60 | 4.51 | < 3.70 | 3.98 | < 3.70 | O=c1c2cc(O)ccc2oc2cc(O)cc(O)c12 | – |
| < 3.70 | 4.63 | < 3.70 | < 3.70 | 4.03 | COc1ccc2c(=O)c3cc(O)ccc3oc2c1 | – |
| 4.59 | 4.68 | 4.08 | 4.60 | 4.59 | COc1cc(OC)c2c(=O)c3c(O)cccc3oc2c1 | – |
| 5.02 | 4.95 | 5.06 | 4.54 | 4.92 | COc1cc(OC)c2c(=O)c3ccc(O)cc3oc2c1 | pIC50 (MDA-MB-231 [6]): 5.04; pIC50 (MCF7 [7]): 4.85; pIC50 (HepG2 [8]): 5.07; pIC50 (K562 [9]): 4.58; pIC50 (COLO 320 [10]): 4.99 |
| 4.08 | 3.89 | < 3.70 | 4.13 | 4.04 | O=c1c2cc(O)ccc2oc2ccc(O)cc12 [EUXANTHONE] | – |
| 4.18 | 4.00 | 4.08 | 3.81 | 4.07 | O=c1c2cc(O)c(O)cc2oc2cccc(O)c12 | – |
| 4.06 | 4.36 | 4.06 | 4.08 | 4.11 | O=c1c2ccc(O)cc2oc2c(O)c(O)ccc12 | – |
| 4.16 | < 3.70 | 4.21 | < 3.70 | 4.01 | O=c1c2ccccc2oc2ccc(Cl)cc12 | – |
| 4.50 | 4.04 | 4.21 | 4.51 | 4.42 | O=c1c2ccc(O)cc2oc2cc(O)ccc12 | – |
| 5.28 | 5.92 | 5.49 | 5.28 | 4.82 | O=c1c2cc(Cl)ccc2oc2cc(O)cc(O)c12 | pIC50 (MDA-MB-231 [6]): 5.51; pIC50 (MCF7 [7]): 5.94; pIC50 (HepG2 [8]): 5.37; pIC50 (K562 [9]): 5.64; pIC50 (COLO 320 [10]): 5.04 |
| 4.46 | 4.46 | 4.49 | 4.47 | 4.45 | COc1cc(O)c2c(=O)c3c(OC)cccc3oc2c1 | – |
| 4.06 | 4.37 | 4.06 | 4.28 | 4.11 | COc1cc(OC)c2c(=O)c3cc(Br)ccc3oc2c1 | – |

| pIC50 (MDA-MB-231 [1]) | pIC50 (MCF7 [2]) | pIC50 (HepG2 [3]) | pIC50 (K562 [4]) | pIC50 (COLO 320 [5]) | Structure (SMILES) | further results |
| --- | --- | --- | --- | --- | --- | --- |
| 5.07 | 5.38 | 4.90 | 5.29 | 4.57 | Cc1ccc2c(=O)c3c(O)cc(O)cc3oc2c1 | pIC50 (MDA-MB-231 [6]): 5.58; pIC50 (MCF7 [7]): 5.69; pIC50 (HepG2 [8]): 5.06; pIC50 (K562 [9]): 5.33; pIC50 (COLO 320 [10]): 4.64 |
| 4.24 | 4.89 | 4.43 | 4.28 | 4.06 | O=c1c2cc(Cl)ccc2oc2c(O)cccc12 | – |
| 4.36 | 4.87 | 4.62 | 4.36 | 4.27 | O=c1c2cc(O)ccc2oc2c(O)cccc12 | – |
| 4.32 | 4.26 | 4.00 | 4.24 | 4.40 | Cc1ccc2c(=O)c3cccc(CC(=O)O)c3oc2c1C [VADIMEZAN] | viability at 24 µM (MDA-MB-231 [11]): 80.7%; Activity (MDA-MB-231 [12]): 0.53%; Activity (MDA-MB-231 [13]): 6.65%; Activity (MDA-MB-231 [14]): 12.09%; viability at 48 µM (MDA-MB-231 [15]): 65.9%; Activity (MDA-MB-231 [16]): 2.22%; Activity (MDA-MB-231 [17]): 17.03%; Activity (MDA-MB-231 [18]): 14.88%; viability at 96 µM (MDA-MB-231 [19]): 58.8%; Activity (MDA-MB-231 [20]): 4.48%; Activity (MDA-MB-231 [21]): 14.93%; Activity (MDA-MB-231 [22]): 21.83%; Activity (MDA-MB-231 [23]): Active; Activity (MDA-MB-231 [24]): Active; Activity (MDA-MB-231 [25]): Active; Activity (MDA-MB-231 [26]): Active; Activity (MDA-MB-231 [27]): Active; Activity (MDA-MB-231 [28]): Active; Activity (MDA-MB-231 [29]): 25%; Activity (MDA-MB-231 [30]): Dose-dependent effect |
| 4.62 | 4.63 | 4.47 | 4.55 | 4.63 | O=c1c2cccc(O)c2oc2cc(O)cc(O)c12 | – |
| 3.91 | 4.03 | 4.05 | 3.99 | 4.14 | O=c1c2ccccc2oc2c(O)c(O)ccc12 [3,4-DIHYDROXYXANTHONE] | – |
| 4.36 | 4.08 | 4.03 | 4.03 | 4.27 | Cc1ccc2c(=O)c3cccc(O)c3oc2c1 | – |
| 4.49 | 4.03 | 4.28 | 4.05 | 4.50 | O=c1c2ccc(O)cc2oc2ccc(O)cc12 | – |
| 4.48 | 4.50 | 4.26 | 4.22 | 4.44 | O=c1c2c(O)cccc2oc2cc(O)cc(O)c12 | – |
| 4.94 | 4.95 | 4.93 | 4.35 | 4.82 | O=c1c2ccccc2oc2cc(O)cc(O)c12 | – |
| 4.90 | 4.64 | 4.08 | < 3.70 | 3.99 | O=c1c2cc(Br)ccc2oc2c(O)cccc12 | – |
| 4.03 | 3.92 | 4.07 | < 3.70 | < 3.70 | O=c1c2ccccc2oc2cc(O)ccc12 | – |
| 4.34 | 4.39 | 4.36 | 4.35 | 4.26 | O=c1c2ccc(O)cc2oc2ccc(Cl)cc12 | – |
| 4.25 | 3.95 | 3.91 | 4.25 | 3.98 | O=c1c2ccc(O)cc2oc2cc(O)cc(O)c12 | – |
| 4.63 | 4.55 | 4.20 | 4.13 | 4.03 | O=c1c2cc(O)ccc2oc2cc(O)c(O)cc12 | – |
| 4.08 | 3.98 | 4.20 | 4.27 | 4.20 | O=c1c2cc(Br)ccc2oc2c(O)c(O)ccc12 | – |
